In patent US9833497B2, “Human originated EGF domain proteins and use of the same” (CHENGDU SOURCEBIO LIMITED-LIABILITY COMPANY, priority 2013, dated 2017):

How the values were obtained:
Type in all cases: cell-based
E. coli DH5α = assay: Antibacterial activity: MIC and growth curve against E. coli DH5α in 96-well plate; conditions: minimal inhibitory concentration against E. coli DH5α; 96-well plate, 5×10^5 CFU/mL, 37° C., judged after 8 h
Outline: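 Log-phase DH5α (OD600 about 0.5, 37° C, 185 rpm in LB) was pelleted, resuspended in fresh LB and seeded at 5×10^5 CFU/mL with recombinant protein at 50, 25 and 12.5 μg/mL (two-fold series), in triplicate. Plates were shaken at 175 rpm, 37° C, and OD600 was read every 30 min. MIC was the lowest concentration with no growth.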

E. coli BL21 = assay: MIC against Gram-negative bacteria: E. coli BL21; conditions: for MIC (μg/mL) E. coli BL21 / MIC: E. coli BL21
Outline: (§1)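 Growth inhibition by human EGF domain proteins was scored in LB liquid culture seeded at 5×10^5 CFU/mL. Protein was applied as a two-fold dilution series in triplicate, with shaking incubation at 37° C; MIC is the lowest concentration giving no growth.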

Pseudomonas aeruginosa = assay: MIC against Gram-negative bacteria: Pseudomonas aeruginosa
Outline: as §1

Klebsiella pneumonia = assay: MIC against Gram-negative bacteria: Klebsiella pneumonia
Outline: as §1

Enterobacter cloacae = assay: MIC against Gram-negative bacteria: Enterobacter cloacae
Outline: as §1

Aeromonas hydrophila = assay: MIC against Gram-negative bacteria: Aeromonas hydrophila
Outline: as §1

Citrobacter diversus = assay: MIC against Gram-negative bacteria: Citrobacter diversus
Outline: as §1

Moraxella catarrhalis = assay: MIC against Gram-negative bacteria: Moraxella catarrhalis
Outline: as §1

Proteus mirabilis = assay: MIC against Gram-negative bacteria: Proteus mirabilis
Outline: as §1

Proteus vulgaris = assay: MIC against Gram-negative bacteria: Proteus vulgaris
Outline: as §1

Serratia marcescens = assay: MIC against Gram-negative bacteria: Serratia marcescens
Outline: as §1

[1] = 96-well plate, 5×10^5 CFU/mL, 37° C., 10 h
[2] = P. aeruginosa, 10 h cultivation at 37° C.
[3] = K. pneumonia, 10 h cultivation at 37° C.
[4] = E. cloacae, 10 h cultivation at 37° C.
[5] = A. hydrophila, 10 h cultivation at 37° C.
[6] = C. diversus, 10 h cultivation at 37° C.
[7] = M. catarrhalis, 10 h cultivation at 37° C.
[8] = P. mirabilis, 10 h cultivation at 37° C.
[9] = P. vulgaris, 10 h cultivation at 37° C.
[10] = S. marcescens, 10 h cultivation at 37° C.
[11] = 10 h cultivation at 37° C., 5×10^5 CFU/mL, two-fold serial dilution
[12] = 10 h cultivation at 37° C., 5×10^5 CFU/mL
[13] = P. aeruginosa, 10 h cultivation at 37° C., 5×10^5 CFU/mL
[14] = K. pneumonia, 10 h cultivation at 37° C., 5×10^5 CFU/mL
[15] = E. cloacae, 10 h cultivation at 37° C., 5×10^5 CFU/mL
[16] = A. hydrophila, 10 h cultivation at 37° C., 5×10^5 CFU/mL
[17] = C. diversus, 10 h cultivation at 37° C., 5×10^5 CFU/mL
[18] = M. catarrhalis, 10 h cultivation at 37° C., 5×10^5 CFU/mL
[19] = P. mirabilis, 10 h cultivation at 37° C., 5×10^5 CFU/mL
[20] = P. vulgaris, 10 h cultivation at 37° C., 5×10^5 CFU/mL
[21] = S. marcescens, 10 h cultivation at 37° C., 5×10^5 CFU/mL

PRT728 (ATNPCKDNNGGCEQVCVLSHRTDNDGLGFRCKCTFGFQLDTDERHCI; listed as Homo sapiens)
MIC (E. coli DH5α): 25 µg/mL | MIC E. coli BL21 (E. coli BL21; [1]): 25 µg/mL | MIC P. aeruginosa (Pseudomonas aeruginosa; [1]): 25 µg/mL | MIC K. pneumonia (Klebsiella pneumonia; [1]): 12.5 µg/mL | MIC E. cloacae (Enterobacter cloacae; [1]): 25 µg/mL | MIC A. hydrophila (Aeromonas hydrophila; [1]): 12.5 µg/mL | MIC C. diversus (Citrobacter diversus; [1]): 25 µg/mL | MIC M. catarrhalis (Moraxella catarrhalis; [1]): 12.5 µg/mL | MIC P. mirabilis (Proteus mirabilis; [1]): 12.5 µg/mL | MIC P. vulgaris (Proteus vulgaris; [1]): 12.5 µg/mL | MIC S. marcescens (Serratia marcescens; [1]): 25 µg/mL

PRT653 (DVDECEDPQSSCLGGECKNTVGSYQCLCPQGFQLANGTVCE; listed as Homo sapiens)
MIC (E. coli DH5α): 25 µg/mL | MIC E. coli BL21 (E. coli BL21; [1]): 12.5 µg/mL | MIC P. aeruginosa (Pseudomonas aeruginosa; [1]): 25 µg/mL | MIC K. pneumonia (Klebsiella pneumonia; [1]): 50 µg/mL | MIC E. cloacae (Enterobacter cloacae; [1]): 25 µg/mL | MIC A. hydrophila (Aeromonas hydrophila; [1]): 12.5 µg/mL | MIC C. diversus (Citrobacter diversus; [1]): 50 µg/mL | MIC M. catarrhalis (Moraxella catarrhalis; [1]): 25 µg/mL | MIC P. mirabilis (Proteus mirabilis; [1]): 12.5 µg/mL | MIC P. vulgaris (Proteus vulgaris; [1]): 50 µg/mL | MIC S. marcescens (Serratia marcescens; [1]): 25 µg/mL

PRT125 (CTGHCAHPRLPCFHGGRCVERYSYYTCDCDLTAFDGPYCN; listed as Homo sapiens)
MIC (E. coli DH5α): 100 µg/mL | MIC (μg/mL) E. coli BL21 (E. coli BL21; [1]): 12.5 µg/mL | MIC (μg/mL) P. aeruginosa (Pseudomonas aeruginosa; Pseudomonas aeruginosa, 96-well plate, 5×10^5 CFU/mL, 37° C., 10 h): 12.5 µg/mL | MIC (μg/mL) K. pneumonia (Klebsiella pneumonia; Klebsiella pneumonia, 96-well plate, 5×10^5 CFU/mL, 37° C., 10 h): 12.5 µg/mL | MIC (μg/mL) E. cloacae (Enterobacter cloacae; Enterobacter cloacae, 96-well plate, 5×10^5 CFU/mL, 37° C., 10 h): 12.5 µg/mL | MIC (μg/mL) A. hydrophila (Aeromonas hydrophila; Aeromonas hydrophila, 96-well plate, 5×10^5 CFU/mL, 37° C., 10 h): 50 µg/mL | MIC (μg/mL) C. diversus (Citrobacter diversus; Citrobacter diversus, 96-well plate, 5×10^5 CFU/mL, 37° C., 10 h): 25 µg/mL | MIC (μg/mL) M. catarrhalis (Moraxella catarrhalis; Moraxella catarrhalis, 96-well plate, 5×10^5 CFU/mL, 37° C., 10 h): 12.5 µg/mL | MIC (μg/mL) P. mirabilis (Proteus mirabilis; Proteus mirabilis, 96-well plate, 5×10^5 CFU/mL, 37° C., 10 h): 25 µg/mL | MIC (μg/mL) P. vulgaris (Proteus vulgaris; Proteus vulgaris, 96-well plate, 5×10^5 CFU/mL, 37° C., 10 h): 50 µg/mL | MIC (μg/mL) S. marcescens (Serratia marcescens; Serratia marcescens, 96-well plate, 5×10^5 CFU/mL, 37° C., 10 h): 25 µg/mL

PRT938 (DIDDCLANPCQNGGSCMDGVNTFSCLCLPGFTGDKCQ; listed as Homo sapiens)
MIC (E. coli DH5α): 12.5 µg/mL | MIC (E. coli BL21; 10 h cultivation at 37° C.): 50 µg/mL | MIC (Pseudomonas aeruginosa; [2]): 25 µg/mL | MIC (Klebsiella pneumonia; [3]): 12.5 µg/mL | MIC (Enterobacter cloacae; [4]): 25 µg/mL | MIC (Aeromonas hydrophila; [5]): 50 µg/mL | MIC (Citrobacter diversus; [6]): 12.5 µg/mL | MIC (Moraxella catarrhalis; [7]): 50 µg/mL | MIC (Proteus mirabilis; [8]): 12.5 µg/mL | MIC (Proteus vulgaris; [9]): 50 µg/mL | MIC (Serratia marcescens; [10]): 12.5 µg/mL

PRT1109 (EPRGCATQPCHHGALCVPQGPDPTGFRCYCVPGFQGPRCE; listed as Homo sapiens)
MIC (E. coli DH5α): 12.5 µg/mL | MIC E. coli BL21 (E. coli BL21; [11]): 25 µg/mL | MIC P. aeruginosa (Pseudomonas aeruginosa; [11]): 12.5 µg/mL | MIC K. pneumonia (Klebsiella pneumonia; [11]): 25 µg/mL | MIC E. cloacae (Enterobacter cloacae; [11]): 12.5 µg/mL | MIC A. hydrophila (Aeromonas hydrophila; [11]): 50 µg/mL | MIC C. diversus (Citrobacter diversus; [11]): 12.5 µg/mL | MIC M. catarrhalis (Moraxella catarrhalis; [11]): 25 µg/mL | MIC P. mirabilis (Proteus mirabilis; [11]): 50 µg/mL | MIC P. vulgaris (Proteus vulgaris; [11]): 25 µg/mL | MIC S. marcescens (Serratia marcescens; [11]): 12.5 µg/mL

PRT835 (DVDECASSRGGCEHHCTNLAGSFQCSCEAGYRLHEDRRGCS; listed as Homo sapiens)
MIC (E. coli DH5α): 25 µg/mL | MIC (μg/mL) E. coli BL21 (E. coli BL21; [12]): 50 µg/mL | MIC (μg/mL) P. aeruginosa (Pseudomonas aeruginosa; [13]): 25 µg/mL | MIC (μg/mL) K. pneumonia (Klebsiella pneumonia; [14]): 12.5 µg/mL | MIC (μg/mL) E. cloacae (Enterobacter cloacae; [15]): 50 µg/mL | MIC (μg/mL) A. hydrophila (Aeromonas hydrophila; [16]): 25 µg/mL | MIC (μg/mL) C. diversus (Citrobacter diversus; [17]): 12.5 µg/mL | MIC (μg/mL) M. catarrhalis (Moraxella catarrhalis; [18]): 25 µg/mL | MIC (μg/mL) P. mirabilis (Proteus mirabilis; [19]): 50 µg/mL | MIC (μg/mL) P. vulgaris (Proteus vulgaris; [20]): 12.5 µg/mL | MIC (μg/mL) S. marcescens (Serratia marcescens; [21]): 25 µg/mL

PRT650 (DIDECQQGNLCVNGQCKNTEGSFRCTCGQGYQLSAAKDQCE; listed as Homo sapiens)
MIC (E. coli DH5α): 12.5 µg/mL | MIC E. coli BL21 (E. coli BL21; [1]): 25 µg/mL | MIC P. aeruginosa (Pseudomonas aeruginosa; [1]): 50 µg/mL | MIC K. pneumonia (Klebsiella pneumonia; [1]): 12.5 µg/mL | MIC E. cloacae (Enterobacter cloacae; [1]): 50 µg/mL | MIC A. hydrophila (Aeromonas hydrophila; [1]): 25 µg/mL | MIC C. diversus (Citrobacter diversus; [1]): 12.5 µg/mL | MIC M. catarrhalis (Moraxella catarrhalis; [1]): 25 µg/mL | MIC P. mirabilis (Proteus mirabilis; [1]): 50 µg/mL | MIC P. vulgaris (Proteus vulgaris; [1]): 12.5 µg/mL | MIC S. marcescens (Serratia marcescens; [1]): 50 µg/mL

PRT573 (CPCPDGPDSGRQFARSCYQDPVTLQLACVCDPGYIGSRCDDCASGYFGNPSEVGGSCQP; listed as Homo sapiens)
MIC (E. coli DH5α): 25 µg/mL | MIC against E. coli BL21 (E. coli BL21; [1]): 12.5 µg/mL | MIC against P. aeruginosa (Pseudomonas aeruginosa; [1]): 25 µg/mL | MIC against K. pneumonia (Klebsiella pneumonia; [1]): 12.5 µg/mL | MIC against E. cloacae (Enterobacter cloacae; [1]): 25 µg/mL | MIC against A. hydrophila (Aeromonas hydrophila; [1]): 12.5 µg/mL | MIC against C. diversus (Citrobacter diversus; [1]): 12.5 µg/mL | MIC against M. catarrhalis (Moraxella catarrhalis; [1]): 50 µg/mL | MIC against P. mirabilis (Proteus mirabilis; [1]): 12.5 µg/mL | MIC against P. vulgaris (Proteus vulgaris; [1]): 50 µg/mL | MIC against S. marcescens (Serratia marcescens; [1]): 12.5 µg/mL

PRT1012 (APKGCGPPSPCLYNGSCSETTGLGGPGFRCSCPHSSPGPRCQ; listed as Homo sapiens)
MIC (E. coli DH5α): 12.5 µg/mL | MIC (E. coli BL21; 10 h cultivation at 37° C.): 50 µg/mL | MIC (Pseudomonas aeruginosa; [2]): 12.5 µg/mL | MIC (Klebsiella pneumonia; [3]): 12.5 µg/mL | MIC (Enterobacter cloacae; [4]): 50 µg/mL | MIC (Aeromonas hydrophila; [5]): 12.5 µg/mL | MIC (Citrobacter diversus; [6]): 50 µg/mL | MIC (Moraxella catarrhalis; [7]): 12.5 µg/mL | MIC (Proteus mirabilis; [8]): 12.5 µg/mL | MIC (Proteus vulgaris; [9]): 25 µg/mL | MIC (Serratia marcescens; [10]): 12.5 µg/mL

PRT620 (CPCHNGFSCSVMPETEEVVCNNCPPGVTGARCELCADGYFGDPFGEHGPVRPCQP; listed as Homo sapiens)
MIC (E. coli DH5α): 25 µg/mL | MIC E. coli BL21 (E. coli BL21; [1]): 12.5 µg/mL | MIC P. aeruginosa (Pseudomonas aeruginosa; [1]): 25 µg/mL | MIC K. pneumonia (Klebsiella pneumonia; [1]): 50 µg/mL | MIC E. cloacae (Enterobacter cloacae; [1]): 12.5 µg/mL | MIC A. hydrophila (Aeromonas hydrophila; [1]): 50 µg/mL | MIC C. diversus (Citrobacter diversus; [1]): 12.5 µg/mL | MIC M. catarrhalis (Moraxella catarrhalis; [1]): 50 µg/mL | MIC P. mirabilis (Proteus mirabilis; [1]): 25 µg/mL | MIC P. vulgaris (Proteus vulgaris; [1]): 12.5 µg/mL | MIC S. marcescens (Serratia marcescens; [1]): 25 µg/mL

PRT167 (TPNPCENDGVCTDIGGDFRCRCPAGFIDKTC; listed as Homo sapiens)
MIC (E. coli DH5α): 12.5 µg/mL | MIC (μg/mL) E. coli BL21 (E. coli BL21; [12]): 50 µg/mL | MIC (μg/mL) P. aeruginosa (Pseudomonas aeruginosa; [13]): 12.5 µg/mL | MIC (μg/mL) K. pneumonia (Klebsiella pneumonia; [14]): 50 µg/mL | MIC (μg/mL) E. cloacae (Enterobacter cloacae; [15]): 12.5 µg/mL | MIC (μg/mL) A. hydrophila (Aeromonas hydrophila; [16]): 12.5 µg/mL | MIC (μg/mL) C. diversus (Citrobacter diversus; [17]): 25 µg/mL | MIC (μg/mL) M. catarrhalis (Moraxella catarrhalis; [18]): 12.5 µg/mL | MIC (μg/mL) P. mirabilis (Proteus mirabilis; [19]): 25 µg/mL | MIC (μg/mL) P. vulgaris (Proteus vulgaris; [20]): 25 µg/mL | MIC (μg/mL) S. marcescens (Serratia marcescens; [21]): 12.5 µg/mL
